{"source": "patent US9320722B2", "about": "“Regulators of aldehyde dehydrogenase ALDH3A1 and related therapeutic methods” (Indiana University Research and Technology Corporation, priority 2013, dated 2016)", "key": {"[1]": {"biological_target": "T1, ALDH3A1 (Homo sapiens (Human), UniProt P30838)", "T1 sequence (P30838 whole entry)": "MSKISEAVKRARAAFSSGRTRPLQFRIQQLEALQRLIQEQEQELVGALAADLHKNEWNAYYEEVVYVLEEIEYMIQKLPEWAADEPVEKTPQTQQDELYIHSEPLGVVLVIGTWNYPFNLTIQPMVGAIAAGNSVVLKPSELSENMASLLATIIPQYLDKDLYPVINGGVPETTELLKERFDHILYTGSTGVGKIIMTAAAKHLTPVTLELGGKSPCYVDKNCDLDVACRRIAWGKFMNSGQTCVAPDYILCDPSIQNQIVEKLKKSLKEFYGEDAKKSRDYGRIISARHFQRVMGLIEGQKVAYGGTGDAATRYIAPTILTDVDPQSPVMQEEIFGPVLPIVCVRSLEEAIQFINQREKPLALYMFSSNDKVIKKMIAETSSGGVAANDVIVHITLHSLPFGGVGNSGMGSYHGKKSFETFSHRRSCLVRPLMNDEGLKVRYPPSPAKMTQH", "assay_type": "biochemical", "conditions": "50 μM CB29", "protocol": "(§2) A549, SF767 and CCD13Lu cell lysates were collected exactly the same way as described before and 50 μg of cell lysate was used in the activity assay. […] All assays contained 1% (v/v) DMSO.\n(§3) Cell lysates were obtained from A549, SF767 and CCD13Lu cell lines. In summary, cells (A549, SF767 and CCD13Lu) were washed with ice cold PBS to remove residual media. 400 μL of RIPA buffer (Cell signaling technologies) containing 1 mM PMSF (Sigma Aldrich) was added to each 10 cm dish. Plates were incubated on ice for 5 minutes, scraped and lysates were collected. Lysates were centrifuged for 10 minutes at 16,000×G in a micro-centrifuge at 4° C. Protein concentrations were measured using the Bradford reagent (Biorad Laboratories). 50 μg of cell lysate was used in the activity assay. […] All assays, including the controls, contained 1% (v/v) DMSO."}, "[2]": {"system": "SF767 cells", "experiment": "MTT assay for cell proliferation / mafosfamide sensitivity, SF767", "assay_type": "cell-based"}, "[3]": {"experiment": "Solubility", "assay_type": "physicochemical", "conditions": "in the presence of […] DMSO"}, "[4]": {"biological_target": "ALDH3A1 activity in A549 cell lysates (Homo sapiens (Human), UniProt P30838)", "sequence (P30838 whole entry)": "as above", "assay_type": "biochemical", "conditions": "50 μM CB29", "protocol": "as §2, §3"}, "[5]": {"biological_target": "ALDH2 (Homo sapiens (Human), UniProt P05091)", "sequence (P05091 18-517)": "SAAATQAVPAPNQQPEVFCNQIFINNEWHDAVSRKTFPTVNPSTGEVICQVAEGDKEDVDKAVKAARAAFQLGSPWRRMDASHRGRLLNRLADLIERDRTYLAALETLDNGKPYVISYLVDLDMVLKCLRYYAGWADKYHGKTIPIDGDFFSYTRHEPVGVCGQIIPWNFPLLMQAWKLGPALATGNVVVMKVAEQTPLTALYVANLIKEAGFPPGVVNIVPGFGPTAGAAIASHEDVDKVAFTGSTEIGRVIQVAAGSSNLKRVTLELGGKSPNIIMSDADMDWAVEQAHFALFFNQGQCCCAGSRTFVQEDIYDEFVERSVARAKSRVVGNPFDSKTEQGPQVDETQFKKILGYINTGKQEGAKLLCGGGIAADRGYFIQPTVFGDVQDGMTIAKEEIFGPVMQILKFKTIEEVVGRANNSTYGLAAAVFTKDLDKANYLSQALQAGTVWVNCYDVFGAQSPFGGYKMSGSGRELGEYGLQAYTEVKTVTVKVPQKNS", "experiment": "ALDH2 dehydrogenase activity / IC50 determination (propionaldehyde substrate)", "assay_type": "biochemical", "conditions": "up to 250 μM", "protocol": "The enzymatic activity of ALDH1A1, ALDH2 and ALDH3A1 were measured as described previously^[30,34,37,39]. The specific activities of the purified proteins were 1.9, 3.8 and 32 μmole/min/mg for ALDH1A1, ALDH2 and ALDH3A1 respectively.\n(§4) All reactions were initiated by the addition of the aldehyde substrate. The inhibition curves were fit to the Logistic four parameter IC50 equation using the SigmaPlot (v11, StatSys). We characterized the mode of inhibition using steady-state kinetics through co-variation of inhibitor and substrate concentrations. The steady state kinetic measurements were performed in 100 mM Na2HPO4 buffer, pH 7.5. […] In all cases—including the control reactions lacking inhibitors, the final reaction mixture contained 2% (v/v) DMSO. The reaction was initiated by addition of substrate and the initial rate of product formation was determined on a Beckman DU-640. All data were fit to the non-linear velocity expressions for competitive, non-competitive, mixed-type non-competitive and uncompetitive inhibition^[40]. Appropriateness of the inhibition model was determined through analysis of goodness-of-fit and the residuals of those fits. Lineweaver-Burke plots were created using SigmaPlot (v11, StatSys) to visualize the inhibition patterns. All data represent the average of three independent experiments utilizing triplicate assays at each concentration point.\n(§5) ALDH1A1, ALDH2 and ALDH3A1 activities were measured as described earlier^33,44,45. […] Reaction was initiated by the addition of the aldehyde substrate. […] The inhibition curves were fit to the Logistic four parameter IC50 equation using the SigmaPlot (v11, StatSys). Steady state kinetic experiments were performed by co-varying inhibitor and substrate concentrations. The steady state kinetic measurements were performed in 100 mM Na2HPO4 buffer, pH 7.5."}, "[6]": {"biological_target": "ALDH3A1 activity in SF767 cell lysates (Homo sapiens (Human), UniProt P30838)", "sequence (P30838 whole entry)": "as the sequence (P30838 whole entry) above", "assay_type": "biochemical", "conditions": "50 μM CB29", "protocol": "as §2, §3"}, "[7]": {"biological_target": "ALDH1A1 (Homo sapiens (Human), UniProt P00352)", "sequence (P00352 whole entry)": "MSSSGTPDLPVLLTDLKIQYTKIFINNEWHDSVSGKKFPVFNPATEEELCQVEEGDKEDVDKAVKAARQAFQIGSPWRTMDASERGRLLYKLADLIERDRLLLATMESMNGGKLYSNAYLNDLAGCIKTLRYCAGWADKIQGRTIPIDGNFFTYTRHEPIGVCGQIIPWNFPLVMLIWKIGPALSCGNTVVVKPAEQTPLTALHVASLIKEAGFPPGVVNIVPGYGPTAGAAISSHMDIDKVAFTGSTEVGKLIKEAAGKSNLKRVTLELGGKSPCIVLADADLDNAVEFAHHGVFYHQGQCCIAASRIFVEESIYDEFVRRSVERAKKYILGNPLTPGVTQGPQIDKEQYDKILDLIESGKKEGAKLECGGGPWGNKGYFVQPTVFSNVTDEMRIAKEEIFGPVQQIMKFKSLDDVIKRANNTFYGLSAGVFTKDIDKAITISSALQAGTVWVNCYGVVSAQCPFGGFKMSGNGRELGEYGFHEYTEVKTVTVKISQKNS", "experiment": "ALDH1A1 dehydrogenase activity / IC50 determination (propionaldehyde substrate)", "assay_type": "biochemical", "conditions": "up to 250 μM", "protocol": "The enzymatic activity of ALDH1A1, ALDH2 and ALDH3A1 were measured as described previously^[30,34,37,39].\nas §4, §5"}, "[8]": {"system": "CCD13Lu cells", "experiment": "MTT assay for cell proliferation / mafosfamide sensitivity, CCD13Lu", "assay_type": "cell-based", "conditions": "10 μM compound + mafosfamide, FIG. 13c"}, "[9]": {"biological_target": "ALDH3A1 Q122A mutant (Homo sapiens (Human), UniProt P30838, Q123A)", "sequence (P30838 whole entry Q123A)": "as the sequence (P30838 whole entry) above, with Q123A counted along it", "procedure": "(§1) These two mutant proteins were purified exactly the same way as was ALDH3A1. […] Kinetic experiments were performed exactly the same way as the wild type (WT) enzyme."}, "[10]": {"biological_target": "ALDH3A1 Q122W mutant (Homo sapiens (Human), UniProt P30838, Q123W)", "sequence (P30838 whole entry Q123W)": "as the sequence (P30838 whole entry) above, with Q123W counted along it", "procedure": "as §1"}, "[11]": {"biological_target": "T1, ALDH3A1", "assay_type": "biochemical", "conditions": "wt ALDH3A1", "protocol": "as §4\nReaction was initiated by the addition of the aldehyde substrate. […] The inhibition curves were fit to the Logistic four parameter IC50 equation using the SigmaPlot (v11, StatSys). Steady state kinetic experiments were performed by co-varying inhibitor and substrate concentrations. The steady state kinetic measurements were performed in 100 mM Na2HPO4 buffer, pH 7.5.\nThe initial rate of product formation was determined on a Beckman DU-640. All data were fit to the non-linear velocity expressions for competitive, non-competitive, mixed-type non-competitive and uncompetitive inhibition^46. Appropriateness of the inhibition model was determined through analysis of goodness-of-fit and the residuals of those fits. Lineweaver-Burke plots were created using SigmaPlot (v11, StatSys) to visualize the inhibition patterns. All data represent the average of three independent experiments utilizing triplicate assays at each concentration point."}}, "note": "Where two headings read alike, the source gives them in different places.", "data": [{"smiles": "CC(=O)Nc1ccc(Nc2ccc(S(C)(=O)=O)cc2[N+](=O)[O-])cc1", "note": "[CB29, N-[4-{(4-(methylsulfonyl)-2-nitrophenyl)-4-amino}-phenyl]-acetamide]", "values": [{"measurement": "decrease of activity of recombinant ALDH3A1", "setting": "[1]", "value": "~97", "unit": "%"}, {"measurement": "ED50 value of mafosfamide in the presence of inhibitor, SF767", "setting": "[2]; 50 μM inhibitor, 146±2 μM without inhibitor", "value": "92 ± 4", "unit": "µM"}, {"measurement": "concentration of homogenous solution easily formed", "setting": "[3]", "value": "≥ 100", "unit": "µM"}, {"measurement": "decrease of ALDH3A1 activity in A549 cell lysate", "setting": "[4]", "value": "> 95", "unit": "%"}, {"measurement": "inhibition toward ALDH2", "setting": "[5]", "value": "< 5", "unit": "%"}, {"measurement": "decrease of ALDH3A1 activity in SF767 cell lysate", "setting": "[6]", "value": "> 90", "unit": "%"}, {"measurement": "inhibition toward ALDH1A1", "setting": "[7]", "value": "< 5", "unit": "%"}]}, {"smiles": "Cc1ccc(S(=O)(=O)n2c(C)nc3ccccc32)cc1", "note": "[Compound A10]", "values": [{"measurement": "chemosensitivity to mafosfamide (in words), SF767", "setting": "[2]; 10 μM inhibitor + mafosfamide", "value": "significantly increased chemosensitivity"}, {"measurement": "effect with mafosfamide (in words), CCD13Lu", "setting": "[8]", "value": "decreased cell proliferation"}]}, {"smiles": "CCC=O", "note": "[Propionaldehyde]", "values": [{"measurement": "Propionaldehyde Kcat/Km", "setting": "[9]", "value": "817 ± 50", "unit": "M⁻¹ s⁻¹"}, {"measurement": "Propionaldehyde Kcat/Km", "setting": "[9]; listed as propionaldehyde", "value": 817, "unit": "M⁻¹ s⁻¹"}, {"measurement": "Km", "setting": "[9]; read-out: Propionaldehyde Km", "value": "23.9 ± 1.99", "unit": "mM"}, {"measurement": "Propionaldehyde Kcat/Km", "setting": "[10]", "value": "650 ± 83", "unit": "M⁻¹ s⁻¹"}, {"measurement": "Propionaldehyde Kcat/Km", "setting": "[10]; listed as propionaldehyde", "value": 650, "unit": "M⁻¹ s⁻¹"}, {"measurement": "Km", "setting": "[10]; read-out: Propionaldehyde Km", "value": "5.36 ± 0.59", "unit": "mM"}, {"measurement": "Propionaldehyde Kcat/Km", "setting": "[11]", "value": "830 ± 50", "unit": "M⁻¹ s⁻¹"}, {"measurement": "Propionaldehyde Kcat/Km", "setting": "[11]; listed as propionaldehyde", "value": 830, "unit": "M⁻¹ s⁻¹"}, {"measurement": "Km", "setting": "[11]; read-out: Propionaldehyde Km", "value": "20.5 ± 0.272", "unit": "mM"}]}]}
